This note sets out measurements from US11548901B2, “Substituted 1,4-methanopyrido[1′,2′:4,5]pyrazino[1,2-a]pyrimidines for treating viral infections” (Gilead Sciences, Inc., priority 2012, dated 2023).

The structures appear in SMILES notation.

The test has as its system HIV-IIIb. The test can be described thus: Antiviral assay in MT4 cells. Type of test: cell-based. The settings on record: Human immunodeficiency virus 1, IIIB, MT4, 120 h, read-out: EC50 nM in MT-4. The method, then: For the antiviral assay utilizing MT4 cells, 0.4 μL of […] test concentration of 3-fold serially diluted compound in DMSO was added to 40 μL of cell growth medium (RPMI 1640, 10% FBS, 1% penicilline/Streptomycine, 1% L-Glutamine, 1% HEPES) in each well of 384-well assay plates (10 concentrations) in quidruplicate.
1 mL aliquots of 2×10^6 MT4 cells are pre-infected for 1 and 3 hours respectively at 37° C. with 25 μL (MT4) or of either cell growth medium (mock-infected) or a fresh 1:250 dilution of an HIV-IIIb concentrated ABI stock (0.004 m.o.i. for MT4 cells). Infected and uninfected cells are diluted in cell growth medium and 35 μL of 2000 (for MT4) cells is added to each well of the assay plates.
Assay plates were then incubated in a 37° C. incubator. […] Cell lysis was carried out by incubating at room temperature for 2-3 minutes, and then chemiluminescence was read using the Envision reader (PerkinElmer).

The EC50 is the concentration needed to bring the measured effect to its halfway point.

In the case of `CC1CC2CC1OC1Cn3cc(C(=O)NCc4ccc(F)cc4F)c(=O)c(O)c3C(=O)N21` (single isomer, unassigned) [Compound 40], the EC50 is 2.4 nM.
